Assay results as given in patent US10251959B2, “Oligomer-beta blocker conjugates” (Nektar Therapeutics, priority 2007, dated 2019).

Columns and labels:
[1] = target: T1, adrenergic, beta-2 (human) (Homo sapiens, UniProt P07550); experiment: adrenergic, beta-2 (human) binding assay; HL-60 cells, isoproterenol, EIA read-out; assay type: cell-based; details: 100 nM isoproterenol, 20 minutes at room temperature
T1 construct: endogenous in cells; host or cells: HL-60 (human promyelocytic leukemia cells)
T1 sequence (P07550 whole entry): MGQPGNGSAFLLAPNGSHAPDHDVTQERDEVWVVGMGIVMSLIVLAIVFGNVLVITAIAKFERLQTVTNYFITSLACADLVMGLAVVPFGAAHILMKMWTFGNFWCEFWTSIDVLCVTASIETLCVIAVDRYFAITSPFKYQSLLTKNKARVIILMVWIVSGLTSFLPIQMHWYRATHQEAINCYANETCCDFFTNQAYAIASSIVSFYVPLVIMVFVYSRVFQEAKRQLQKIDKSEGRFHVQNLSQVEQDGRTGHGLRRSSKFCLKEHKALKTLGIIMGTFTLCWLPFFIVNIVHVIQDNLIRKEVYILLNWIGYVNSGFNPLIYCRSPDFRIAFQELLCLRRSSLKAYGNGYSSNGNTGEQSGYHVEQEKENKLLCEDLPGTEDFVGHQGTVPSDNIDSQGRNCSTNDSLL
Procedure: With respect to beta-2 adrenergic activity, for example, human promyelocytic leukemia cells (HL-60 cells) can be washed and added to physiological buffer. […] Thereafter, 100 nM (final) isoproterenol is added. After twenty minutes at room temperature, cells are centrifuged, buffer removed, and 0.1M HCl is added to stop reaction. […] Pharmacol. 27(1):33-54.
Briefly, human promyelocytic leukemia cells (HL-60 cells) were washed and physiological buffer was added before analysis. To this was added 300 μM IBMX to inhibit phosphodiesterase. […] Cells were then centrifuged, buffer removed and 0.1 M HCL was added to stop the reaction.

[2] = target: T2, adrenergic, beta-1 (human) (Homo sapiens, UniProt P08588); experiment: adrenergic, beta-1 (human) binding assay; human recombinant Sf9 cells, membranes, Europium time-resolved fluorescence; assay type: biochemical; details: Table 2, 30 nM isoproterenol
T2 construct: expressed in transfected cells; host or cells: Sf9 insect cells (membranes)
T2 sequence (P08588 whole entry): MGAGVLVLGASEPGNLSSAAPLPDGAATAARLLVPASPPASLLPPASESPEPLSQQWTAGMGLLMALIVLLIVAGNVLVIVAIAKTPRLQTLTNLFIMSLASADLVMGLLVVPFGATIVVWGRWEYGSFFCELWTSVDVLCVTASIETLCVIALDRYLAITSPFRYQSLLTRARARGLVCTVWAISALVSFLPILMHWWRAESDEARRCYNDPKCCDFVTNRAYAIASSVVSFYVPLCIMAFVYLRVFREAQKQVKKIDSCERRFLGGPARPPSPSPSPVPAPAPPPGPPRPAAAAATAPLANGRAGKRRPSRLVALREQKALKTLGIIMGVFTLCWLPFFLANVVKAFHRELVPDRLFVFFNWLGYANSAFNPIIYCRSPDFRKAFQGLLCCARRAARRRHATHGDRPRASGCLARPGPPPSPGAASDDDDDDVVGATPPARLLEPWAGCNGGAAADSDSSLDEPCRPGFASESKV
Procedure: The compound of interest is added to the membrane and then incubated for ten minutes. Thereafter, 100 nM GTP-Eu is added and incubated for an additional thirty minutes. Europium fluorescence is measured in a time-resolved fluorometer in order to ascertain any functional antagonist activity at the adrenergic beta 1 site. […] Briefly, Human recombinant Sf9 cells were used, wherein reactions were carried out in 50 mM HEPES [pH 7.4] containing 3 mM MgCl2, 0.1 μM GDP, 10 μm/mL Saoonin, and 1 mM DTT (dithiothreitol). The compound of interest was added to the membrane and then incubated for ten minutes at room temperature. Then, 30 nM of isoproterenol [final] to each well was added and allowed to incubate for an additional 30 minutes. Europium fluorescence was measured in a time-resolved fluorometer in order to ascertain any functional antagonist activity at the adrenergic beta-1 site. […] Briefly, Human recombinant Sf9 cells were used, wherein reactions were carried out in 50 mM HEPES [pH 7.4] containing 3 mM MgCl2, 0.1 μM GDP, 10 μm/mL Saoonin, and 1 mM DTT (dithiothreitol). The compound of interest was added to the membrane and then incubated for ten minutes at room temperature. Then, 30 nM of isoproterenol [final] to each well was added and allowed to incubate for an additional 30 minutes. Europium fluorescence was measured in a time-resolved fluorometer in order to ascertain any functional antagonist activity at the adrenergic beta-1 site.

Compound	IC50 ([1]; Table 1, 300 μM IBMX) [nM]	IC50 [2] [nM]	IC50 ([1]; Table 3, 300 μM IBMX) [nM]
COCCOCCOCCOCC(=O)O[C@@H](CNC(C)C)COc1cccc2ccccc12 [Propranolol Conjugate F]	1660	5390	–
COCCOCCOCCOCCOCCOC(CNC(C)(C)C)COc1nsnc1N1CCOCC1 (stereo not shown) [Timolol Compound B]	–	–	1290
COCCOCCOCCOCCOCCOCCOCCOC(CNC(C)(C)C)COc1nsnc1N1CCOCC1 (stereo not shown) [Timolol Compound C]	–	–	603
COCCOCCOCCOCCOCCOCCOCCOCCOC(CNC(C)(C)C)COc1nsnc1N1CCOCC1 (stereo not shown) [Timolol Compound D]	–	–	629

Now from value to compound:

IC50 ([1]; Table 1, 300 μM IBMX) [nM]	IC50 [2] [nM]	IC50 ([1]; Table 3, 300 μM IBMX) [nM]	Compound
112	1790	–	COCCOCCOCCO[C@@H](CNC(C)C)COc1cccc2ccccc12 [Propranolol Conjugate A]
13200	3810	–	COCCOCCOCCOCC(=O)O[C@H](COc1cccc2ccccc12)CN(C(=O)COCCOCCOCCOC)C(C)C [Propranolol Conjugate B]
339	4960	–	COCCOCCOCCOCCOCCO[C@@H](CNC(C)C)COc1cccc2ccccc12 [Propranolol Conjugate C]
378	–	–	COCCOCCOCCOCCOCCOCCOCCO[C@@H](CNC(C)C)COc1cccc2ccccc12 [Propranolol Conjugate D]
1680	–	–	COCCOCCOCCOCCOCCOCCOCCOCC(=O)O[C@@H](CNC(C)C)COc1cccc2ccccc12 [Propranolol Conjugate E]
